Data taken from patent publication US20120121656A1, “METHODS AND COMPOSITIONS FOR PROTECTING AGAINST NEUROTOXICITY OF A NEUROTOXIC AGENT, AND IMPROVING MOTOR COORDINATION ASSOCIATED WITH A NEURODEGENERATIVE CONDITION OR DISEASE” (Revalesio Corporation, priority 2010, published 2012).

Key:
[1] = system: primary progressive MS; details: 943 patients with primary progressive MS (Wolinsky et al. 2007); cited from earlier work
[2] = Body weight of rats in the MBP EAE model; type: in vivo, Lewis rats; details: Group 2F, 1 mg/kg IP once daily from study day 0
From the text: (§1) Body Weights. Body weight loss can be the first sign of disease initiation, while a sudden marked weight gain tends to accompany remission of EAE symptoms. Therefore, determination of individual body weights of animals was made shortly before EAE induction on study day 0 (study commencement) and thereafter on a daily basis throughout the entire 21-day observation period.
as §1, with “This working EXAMPLE discloses the weight change of rats subjected to the experiment described in Example 7.” for “Body Weights.”, “and” for “and thereafter”, “the” for “the entire”

[3] = system: MS; details: in vivo; cited from earlier work
[4] = target: T1, MMP-2 (Homo sapiens, UniProt P08253); details: cited from earlier work
T1 sequence (P08253 110-660): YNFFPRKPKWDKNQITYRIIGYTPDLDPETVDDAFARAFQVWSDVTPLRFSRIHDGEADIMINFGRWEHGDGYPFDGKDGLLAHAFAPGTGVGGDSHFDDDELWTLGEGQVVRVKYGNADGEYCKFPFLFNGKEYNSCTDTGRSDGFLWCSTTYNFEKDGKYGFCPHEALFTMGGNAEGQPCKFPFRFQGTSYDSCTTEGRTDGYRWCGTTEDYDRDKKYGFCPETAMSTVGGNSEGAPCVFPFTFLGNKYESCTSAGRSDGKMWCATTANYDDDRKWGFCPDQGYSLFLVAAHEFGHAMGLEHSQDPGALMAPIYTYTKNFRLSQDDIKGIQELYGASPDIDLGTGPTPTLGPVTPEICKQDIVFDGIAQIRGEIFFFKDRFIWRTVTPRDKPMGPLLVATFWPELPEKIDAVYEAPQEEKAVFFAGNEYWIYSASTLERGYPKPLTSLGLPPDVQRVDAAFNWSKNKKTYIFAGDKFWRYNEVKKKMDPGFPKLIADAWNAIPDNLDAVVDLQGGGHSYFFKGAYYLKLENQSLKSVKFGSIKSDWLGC

[5] = target: MMP-9 (Homo sapiens, UniProt P14780); details: cited from earlier work
Sequence of MMP-9 (P14780 94-707, species assumed): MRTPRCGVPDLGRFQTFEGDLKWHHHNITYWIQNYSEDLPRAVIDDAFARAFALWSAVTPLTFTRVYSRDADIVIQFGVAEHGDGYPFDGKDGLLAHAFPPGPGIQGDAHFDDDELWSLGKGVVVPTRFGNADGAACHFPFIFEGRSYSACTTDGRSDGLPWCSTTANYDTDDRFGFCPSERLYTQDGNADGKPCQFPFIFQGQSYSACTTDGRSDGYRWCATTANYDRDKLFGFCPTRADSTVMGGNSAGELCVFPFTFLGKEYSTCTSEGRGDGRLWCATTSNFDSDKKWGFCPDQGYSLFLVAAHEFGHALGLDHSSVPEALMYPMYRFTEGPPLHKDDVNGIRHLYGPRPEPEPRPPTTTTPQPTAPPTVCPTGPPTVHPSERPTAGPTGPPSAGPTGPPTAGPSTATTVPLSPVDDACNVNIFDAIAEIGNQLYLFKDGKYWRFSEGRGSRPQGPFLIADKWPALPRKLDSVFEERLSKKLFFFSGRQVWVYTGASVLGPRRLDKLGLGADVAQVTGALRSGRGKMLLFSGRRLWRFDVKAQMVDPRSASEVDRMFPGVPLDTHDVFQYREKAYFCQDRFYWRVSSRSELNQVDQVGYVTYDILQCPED

Row | Compound | binding and inhibition of MMP-2 [4] | binding and inhibition of MMP-9 [5] | other results
1 | glatiramer acetate |  |  | progression of disability and the disease [1]: failed to halt the progression of disability and the disease
2 | C[C@@H]1C[C@H]2[C@@H]3CCC4=CC(=O)C=C[C@]4(C)[C@@]3(F)[C@@H](O)C[C@]2(C)[C@@]1(O)C(=O)CO [Dexamethasone] |  |  | mean body weight loss during the study [2]: 10%; mean body weight lost at study termination [2]: 2%
3 | interferon-β |  |  | effectiveness in reducing the rate of MS episodes [3]: 18-38%
4 | O=S(=O)(CCCC(S)CS)c1ccc(Oc2ccccc2)cc1 (centres unmarked) [compound 2, 5-(4-phenoxyphenylsulfonyl)pentane-1,2-dithiol] | bind selectively and inhibit potently | bind selectively and inhibit potently | 
5 | O=S(=O)(CCC(S)CS)c1ccc(Oc2ccccc2)cc1 (centres unmarked) [compound 1, 4-(4-phenoxyphenylsulfonyl)butane-1,2-dithiol] | bind selectively and inhibit potently | bind selectively and inhibit potently | 
